This is an account of results in patent US20230192686A1, “1H-PYRROLO[2,3-B]PYRIDINES AND PREPARATION AND USES THEREOF” (BioSplice Therapeutics, Inc., priority 2021, published 2023).

By pEC50 is commonly meant the EC50 on a negative log10 scale, so that one unit is a factor of ten.

pEC50: −log10 of the molar value.

Assay [1] deals with Tau phosphorylation at Thr212 (pThr212). Kind of assay: Tau phosphorylation assay, phosphoTau (Thr212) AlphaLISA in HEK293T cells transfected with DYRK1A and MAPT. Type of assay: cell-based. The following applies: HEK-293T; HEK293T cells transfected with human DYRK1A and MAPT; compound treatment 18-24 hours; read-out: pTau (Thr212) EC50. As to the method: Representative compounds were screened using the assay procedure for tau phosphorylation activity described below.
HEK293T cells (ATCC, CRL3216) cultured in DMEM (Thermo Fisher Scientific, 10566024) supplemented with 10% FBS (Corning, 35-011-CV) and Penicillin/Streptomycin (Thermo Fisher Scientific, 15140163) were seeded in a 75 cm^2 flask at 8.1×10^6 cells/flask. The HEK293T cells were then transiently transfected with 5 μg DYRK1A (NM_001396) human untagged clone (OriGene, SC314641) and 2.5 μg MAPT (441 a.a. Tau gene) (NM_005910) human untagged clone (OriGene, TP313312) using Lipofectamine 3000 (Thermo Fisher Scientific, L30000015) and incubated for 20-30 hours in a humidified incubator at 37° C. and 5% CO2. Post-incubation, HEK293T cells transfected with the DYRK1A and MAPT expression vectors were harvested and seeded in BioCoat poly-D lysine coated 96-well plates (Corning, 354461) at 3×10^4 cells/well.
The above synthesized compounds were screened using the cell assay procedure to assess decreased Tau phosphorylation at Thr212 (pThr212) described below.
Each compound was dissolved in DMSO (Sigma-Aldrich, D8418-100 mL) as a 10 mM stock. 10 mM stocks were serially diluted 1:3, 10-point dose-response curve and added to the cells with a final concentration ranging from 20 μM to 1.1 nM. Cell were treated with compounds in duplicate and incubated for 18-24 hours in a humidified incubator at 37° C. and 5% CO2.
Following the overnight compound treatment, cells were lysed with 1× Alpha Surefire Ultra Lysis Buffer (Perkin Elmer, ALSU-LB-100ML) complemented with 1× Halt Phosphatase Inhibitor Cocktail (Thermo Fisher Scientific, 78427) and 1× Halt Protease Inhibitor Cocktail (Thermo Fisher Scientific, 78438). Lysates were spun down at 12,000 g for 10 min to remove any cellular debris and 5 μL of lysates were dispensed into a 384-well Opti-Plate (Perkin Elmer, 6007290) for the measurement of Tau phosphorylation in the phosphoTau (Thr212) AlphaLISA assay. Donor antibody, biotinylated HT7Tau (Thermo Fisher Scientific, MN1000B), and acceptor antibody, pThr212Tau (Thermo Fisher Scientific, 44740G) were both added to the cell lysates at a final concentration of 3 nM and incubated for 1 hour at room temperature. Following incubation of the lysates with the donor and acceptor antibodies, anti-rabbit IgG(Fc specific) AlphaLISA acceptor beads (Perkin Elmer, AL104C) were added at a 10 ug/mL final concentration and incubated for 1 hour at room temperature protected from light. Lastly, AlphaScreen streptavidin donor beads (PerkinElmer, 6760002) were added at 40 ug/mL final concentration and incubated for 1 hour at room temperature protected from light. Plates were read at Ex=[…], and Em=615 nm on the EnVision Multilabel Plate Reader (Perkin Elmer) phospho-Tau (Thr212) AlphaLISA signal was used to plot, draw the curve fitting, and determine each compound's EC50 in Prism (GraphPad).
Background: In Alpha technology, singlet oxygen from a donor bead excites a nearby acceptor bead.

The target in assay [2] is recombinant DYRK1A kinase (Homo sapiens, UniProt Q13627). Kind of assay: DYRK1A kinase assay (Ser/Thr 18 peptide Z-lyte FRET). Type of assay: biochemical. To be noted: DYRK1A kinase activity; 15 μM ATP, 4 μM Ser/Thr peptide 18, one hour at room temperature. A digest of the protocol:
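Recombinant DYRK1A at 0.25 μg/mL was incubated 1 h at room temperature with 15 μM ATP, 4 μM Ser/Thr 18 peptide and compound, in duplicate, 11-point series from 10 μM. Phosphorylation was read by Z-lyte FRET after 1 h protease development, as the coumarin/fluorescein emission ratio converted to % phosphorylation. IC50 by non-linear regression.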

Consider `CN1CCN(c2ccc(NC(=O)c3cnc4[nH]cc(-c5ccc6nccnc6c5)c4c3)cn2)CC1` [Compound 817, N-(6-(4-Methylpiperazin-1-yl)pyridin-3-yl)-3-(quinoxalin-6-yl)-1H-pyrrolo[2,3-b]pyridine-5-carboxamide], for which the pEC50 in assay [1] was 6.68; in assay [2], 8.10.

With `CN1CCN(C(=O)c2cnn3ccc(-c4c[nH]c5ncc(C#N)cc45)cc23)CC1` [Compound 2046, 3-(3-(4-Methylpiperazine-1-carbonyl)pyrazolo[1,5-a]pyridin-5-yl)-1H-pyrrolo[2,3-b]pyridine-5-carbonitrile], the pEC50 was 6.21 in assay [1] and 7.33 in assay [2].

With `FC(F)Oc1ccc2c(-c3ccc4nccn4c3)c[nH]c2n1` [Compound 1708, 6-(6-(Difluoromethoxy)-1H-pyrrolo[2,3-b]pyridin-3-yl)imidazo[1,2-a] pyridine], the values for the pEC50 in assay [1] and in assay [2] were 6.27 and 7.74, respectively.

On to `c1cnc2ccc(-c3c[nH]c4nc(C5CC5)ccc34)cc2c1` [Compound 1530, 6-(6-Cyclopropyl-1H-pyrrolo[2,3-b]pyridin-3-yl)quinoline], for which the pEC50 in assay [1] was 6.41; in assay [2] it was 7.62.

With `c1cn2cc(-c3c[nH]c4nc(C5CC5)ccc34)ccc2n1` [Compound 1498, 6-(6-Cyclopropyl-1H-pyrrolo[2,3-b]pyridin-3-yl)imidazo[1,2-a] pyridine], the negative-log EC50 (pEC50) was 6.36 in assay [1] and 7.33 in assay [2].

Consider `CCOc1ccc2c(-c3ccc4ncccc4c3)c[nH]c2n1` [Compound 1782, 6-(6-Ethoxy-1H-pyrrolo[2,3-b]pyridin-3-yl)quinoline], for which the pEC50 in assay [1] is 6.52; in assay [2] it was 7.82.

Regarding `CN1CCC(NC(=O)c2cnn3ccc(-c4c[nH]c5nc(-c6ccccc6)ccc45)cc23)CC1` [Compound 2018, N-(1-Methylpiperidin-4-yl)-5-(6-phenyl-1H-pyrrolo[2,3-b]pyridin-3-yl)pyrazolo[1,5-a]pyridine-3-carboxamide], the pEC50 was 8.10 in assay [1] and 8.15 in assay [2].

For the molecule `O=C1NCCc2cc(-c3c[nH]c4nc(C5CC5)ccc34)ccc21` [Compound 1526, 6-(6-Cyclopropyl-1H-pyrrolo[2,3-b]pyridin-3-yl)-3,4-dihydroisoquinolin-1(2H)-one], the pEC50 in assay [1] is 7.14; in assay [2] it was 8.00.

With `CN1CCC(NC(=O)c2cnn3ccc(-c4c[nH]c5nc(C6CCCC6)ccc45)cc23)CC1` [Compound 1598, 5-(6-Cyclopentyl-1H-pyrrolo[2,3-b]pyridin-3-yl)-N-(1-methylpiperidin-4-yl)pyrazolo[1,5-a]pyridine-3-carboxamide], the negative-log EC50 (pEC50) is 6.88 in assay [1] and 8.40 in assay [2].

Turning to `Cc1ccc2c(-c3ccc4ncccc4c3)c[nH]c2n1` [Compound 1488, 6-(6-Methyl-1H-pyrrolo[2,3-b]pyridin-3-yl)quinoline], the pEC50 in assay [1] was 7.41; in assay [2], 8.70.

On to `CN1CCN(C(=O)c2cnn3ccc(-c4c[nH]c5ncc(Cl)cc45)cc23)CC1` [Compound 215, (5-(5-Chloro-1H-pyrrolo[2,3-b]pyridin-3-yl)pyrazolo[1,5-a]pyridin-3-yl)(4-methylpiperazin-1-yl)methanone], for which the pEC50 in assay [1] is 6.59; in assay [2], 7.92.

In the case of `Cc1nc2c(F)cc(-c3c[nH]c4nc(C5CC5)ccc34)cc2n1C1CCN(C)CC1` [Compound 1502, 6-(6-cyclopropyl-1H-pyrrolo[2,3-b]pyridin-3-yl)-4-fluoro-2-methyl-1-(1-methylpiperidin-4-yl)-1H-benzo[d]imidazole], the pEC50 in assay [1] is 6.03; in assay [2], 8.30.

Consider `Cc1nc2ncc(-c3c[nH]c4ncccc34)cc2n1C(C)C` [Compound 25, 1-Isopropyl-2-methyl-6-(1H-pyrrolo[2,3-b]pyridin-3-yl)-1H-imidazo[4,5-b]pyridine], for which the pEC50 in assay [1] is 7.80; in assay [2], 9.00.

Turning to `CN1CCC(NC(=O)c2cnn3ccc(-c4c[nH]c5nc(C6CC6)ccc45)cc23)CC1` [Compound 1514, 5-(6-Cyclopropyl-1H-pyrrolo[2,3-b]pyridin-3-yl)-N-(1-methylpiperidin-4-yl)pyrazolo[1,5-a]pyridine-3-carboxamide], the pEC50 was 7.09 in assay [1] and 8.30 in assay [2].

For the molecule `Cn1cc(-c2cnn3ccc(-c4c[nH]c5ncccc45)cc23)cn1` [Compound 37, 3-(3-(1-Methyl-1H-pyrazol-4-yl)pyrazolo[1,5-a]pyridin-5-yl)-1H-pyrrolo[2,3-b]pyridine], the pEC50 in assay [1] was 8.22; in assay [2], 9.00.

Turning to `O=C(c1cnn2ccc(-c3c[nH]c4ncccc34)cc12)N1CCC(N2CCOCC2)CC1` [Compound 107, (5-(1H-Pyrrolo[2,3-b]pyridin-3-yl)pyrazolo[1,5-a]pyridin-3-yl)(4-morpholinopiperidin-1-yl)methanone], the pEC50 in assay [1] is 6.40; in assay [2], 8.10.

`c1cn2nc(-c3c[nH]c4nc(C5CC5)ccc34)ccc2n1` [Compound 1508, 6-(6-Cyclopropyl-1H-pyrrolo[2,3-b]pyridin-3-yl)imidazo[1,2-b] pyridazine]: the pEC50 in assay [1] was 6.49; in assay [2] it was 7.54.

With `C[C@@H](NC(=O)c1cnn2ccc(-c3c[nH]c4nc(C5CC5)ccc34)cc12)C(F)(F)F` [Compound 1513, (R)-5-(6-Cyclopropyl-1H-pyrrolo[2,3-b]pyridin-3-yl)-N-(1,1,1-trifluoropropan-2-yl)pyrazolo[1,5-a]pyridine-3-carboxamide], the pEC50 was 6.43 in assay [1] and 7.04 in assay [2].

For the molecule `CN1CCC(Nc2cnc3ccc(-c4c[nH]c5ncccc45)cc3n2)CC1` [Compound 92, N-(1-Methylpiperidin-4-yl)-7-(1H-pyrrolo[2,3-b]pyridin-3-yl) quinoxalin-2-amine], the values for the pEC50 in assay [1] and in assay [2] were 7.51 and 8.30, respectively.

As for `O=C1NCCOc2cc(-c3c[nH]c4nc(C5CC5)ccc34)ccc21` [Compound 1529, 8-(6-Cyclopropyl-1H-pyrrolo[2,3-b]pyridin-3-yl)-3,4-dihydrobenzo[f][1,4] oxazepin-5(2H)-one], the figures for the pEC50 in assay [1] and in assay [2] were 6.38 and 7.55, respectively.
